Experimental data reported in patent US20240294504A1, “COMPOUNDS, COMPOSITIONS, AND METHODS FOR INDUCING ANTIMICROBIAL INTRACELLULAR ACTIVITY AND FOR PREVENTING AND TREATING MICROBIAL INFECTIONS” (The Broad Institute, Inc., priority 2021, published 2024).
Where “and” joins values, the source holds several entries; their conditions need not be identical. Equal entries are not always repeated. Entries after “also recorded” stand apart in the source; their conditions may differ. Where two headings read alike, the source gives them in different places.

Legend:
[1] = system: intracellular K. pneumoniae; assay: Intracellular survival of K. pneumoniae (RB120) in bladder epithelial cells (gentamicin protection assay, CFUs from plated cell lysates); format: cell-based, Klebsiella pneumoniae; settings: for EC50: 24 hours of treatment, bladder epithelial cells, read-out: EC50 of dose-dependent killing / antimicrobial activity against intracellular K. pneumoniae
[2] = system: intracellular carbapenem-tolerant K. pneumoniae; settings: primary screen 5 μM, retest 2.5 to 20 μM
Description: Bladder epithelial cells were infected with lux-expressing K. pneumoniae and incubated with the carbapenem antibiotic meropenem (see FIG. 1A), after killing extracellular bacteria with a high dose of gentamicin shortly after the infection. Intracellular survival was assessed by determining the luminescence intensity of intracellular bacteria that had been liberated by host cell lysis and outgrown in LB medium for 7 hours. […] Mean and SD of Z-factors of n=32 plates from 4 batches (independent outgrowth events) shown. […] Partial hits and hits involving known antibiotics were excluded. Hits from the primary screen were retested in a secondary screen at different concentration.

[3] = system: intracellular Salmonella Typhimurium; assay: Intracellular survival of Salmonella Typhimurium in host cells; format: cell-based
Gram-positive bacteria = settings: cited from earlier work
interferon beta response = assay: Interferon beta response in infected bladder epithelial cells; format: cell-based, human; set-up: dose or concentration left out as unconfirmed; settings: 24 hours (24 to 48 hours post infection)
Description: FIG. 7. […] Infected cells were treated for 24 hours with […] (S)-crizotinib, AY9944 or DMSO control from 24 to 48 hours post infection.

[4] = system: post-lanosterol cholesterol biosynthesis pathway; assay: LC-MS based lipidomics of sterol intermediates in host cells; format: cell-based, human; settings: 10 μM
Description: FIGS. 17A-17C. LC-MS based lipidomics evaluation of effect of other available post-lanosterol cholesterol biosynthesis inhibitors on infection. (FIG. 17A) Post-lanosterol pathway. (FIG. 17B) Effect of 10 μM AY9944 or 10 μM (S)-crizotinib after 2 hours of treatment (FIG. 17C) or after 24 hours of treatment.

[5] = system: extracellular K. pneumoniae; format: cell-based, Klebsiella pneumoniae
SARS-COV-2 = SARS-COV-2 infection of veroE6 kidney epithelial cells (immunofluorescence microscopy); format: cell-based
[6] = system: intracellular K. pneumoniae; assay: Intracellular survival of K. pneumoniae in human lung epithelial cell line A549; format: cell-based, Klebsiella pneumoniae; settings: 10 μM, over 2 hours
cancer cells = settings: cited from earlier work
tumor growth = settings: mouse, in vivo; cited from earlier work
[7] = system: K. pneumoniae ST258 expressing mNeon (UCI_38DwbaP_mNeon); assay: Confocal microscopy of fluorescent Klebsiella-containing vacuoles (LAMP1) in bladder epithelial cells; format: cell-based, Klebsiella pneumoniae; settings: 10 μM, 24 hours (24 to 48 hours post infection)
[8] = system: Pseudomonas aeruginosa (PAO1); assay: Intracellular survival of P. aeruginosa in bladder epithelial cells; format: cell-based; settings: 10 μM, 24 hours
[9] = system: uropathogenic Escherichia coli (UPEC, UTI89); assay: Intracellular survival of UPEC in bladder epithelial cells; format: cell-based; settings: 10 μM, 4 hours
[10] = 10 μM, after 24 hours of treatment
[11] = Klebsiella pneumoniae, Epithelial cell
[12] = 24 h treatment of infected bladder cells

C[C@@H](Oc1cc(-c2cnn(C3CCNCC3)c2)cnc1N)c1c(Cl)ccc(F)c1Cl [(R)-crizotinib]
host cell cytotoxicity against bladder epithelial cells (bladder epithelial cells): displayed host cell cytotoxicity in a dose-dependent manner | killing % of the intracellular K. pneumoniae population [1, 10]: 99% | EC50 [1, 11]: 1100 nM | outcome in high-throughput screen [2]: top hits

C[C@@H](O)[C@H]1C(=O)N2C(C(=O)O)=C(S[C@@H]3CN[C@H](C(=O)N(C)C)C3)[C@H](C)[C@H]12 [meropenem]
impact on the viability of intracellular K. pneumoniae ([1]; meropenem 10 μg/ml (150 fold of MIC), 20 hours): no impact; also recorded: ineffective | killed % of intracellular Salmonella Typhimurium population ([3]; meropenem 10 μg/ml, after 20 hours of treatment): 87%

C[C@@H](Oc1cc(-c2cnn(C3CCNCC3)c2)cnc1N)c1c(Cl)ccc(F)c1Cl [crizotinib]
concentration for growth inhibition of Gram-positive bacteria (Gram-positive bacteria): > 20 µM

CNc1cc(-c2cccc(Cl)c2Cl)nc(N)n1 [TH287]
host cell cytotoxicity against bladder epithelial cells (bladder epithelial cells; [12]): dose dependent toxicity | intracellular antibacterial activity after 4 hours of treatment ([1]; 10 μM): did not display intracellular antibacterial activity | intracellular antibacterial activity after 24 hours of treatment ([1]; 10 μM): modest antibacterial activity

Clc1ccccc1CNCC1CCC(CNCc2ccccc2Cl)CC1 (centres unmarked) [AY 9944]
host cell cytotoxicity against bladder epithelial cells (bladder epithelial cells; [12]): no host cell toxicity | killed % of the intracellular population in 60 minutes ([1]; 10 uM, 60 minutes): approx. 80% | EC50 [1, 11]: 940 nM | interferon beta response in bladder epithelial cells infected with K. pneumoniae (interferon beta response): do not induce an interferon beta response | outcome in high-throughput screen [2]: hit | FF-MAS, fold increased ([4]; 2 hour treatment): 4.2 fold | dehydrodesmosterol, fold increased ([4]; 2 hour treatment): 1.2 fold | lanosterol, fold increased ([4]; 2 hour treatment): 1.2 fold | FF-MAS, fold increased ([4]; 24 hour treatment): 11.9 fold | dehydrodesmosterol, fold increased ([4]; 24 hour treatment): 2.9 fold | lanosterol, fold increased ([4]; 24 hour treatment): 3 fold | antibacterial activity against K. pneumoniae grown in axenic medium [5]: no host cell toxicity or antimicrobial activity in axenic medium | EC50 (SARS-COV-2; Severe acute respiratory syndrome coronavirus 2, Vero C1008, read-out: EC50 of antiviral activity in SARS-COV-2 infections): 1000 nM

C[C@H](Oc1cc(-c2cnn(C3CCNCC3)c2)cnc1N)c1c(Cl)ccc(F)c1Cl [(S)-crizotinib]
host cell cytotoxicity against bladder epithelial cells (bladder epithelial cells): did not display cytotoxicity | killing % of the intracellular population within 15 minutes ([1]; 10 μM, 15 minutes): 82% and 80% | % of the intracellular population killed after 2 hours of treatment ([1]; 10 μM, 2 hours): 99% | effect of removal of gentamicin from the culture medium on antibacterial activity ([1]; 10 μM, 2 hours, presence vs absence of gentamicin): had no impact on the potent antibacterial activity | killing % of the intracellular K. pneumoniae population [1, 10]: 99% | activity against intracellular ciprofloxacin-tolerant K. pneumoniae persisters ([1]; 4 mg/ml ciprofloxacin for 14 hours, then (S)-crizotinib for 6 hours in the presence of ciprofloxacin): dose-dependent antibacterial activity | increase of extracellular bacteria (exocytosis of Klebsiella-containing compartments) ([1]; 2 hours, absence of gentamicin, supernatants): did not result in a significant increase of extracellular bacteria | EC50 [1]: 1700 nM | interferon beta response in bladder epithelial cells infected with K. pneumoniae (interferon beta response): do not induce an interferon beta response | antiinfective activity against intracellular K. pneumoniae in A549 lung epithelial cells [6]: rapid antiinfective activity | inhibits colony formation of cancer cells (cancer cells): low micromolar concentrations | tumor growth in mice (tumor growth): suppress tumor growth in mice | antibacterial activity in cells infected with Salmonella Typhimurium ([3]; HeLa epithelial cells, 10 μM, 20 hours (4 to 24 hours post infection)): antibacterial activity | reduction in the median fluorescence intensity of mNeon-expressing Klebsiella in LAMP1 containing compartments [7]: 33% | reduction of detected Klebsiella containing compartments [7]: 63% | outcome in high-throughput screen [2]: top hits | antibacterial activity in bladder epithelial cells infected with Pseudomonas aeruginosa [8]: antibacterial activity | antibacterial activity against K. pneumoniae grown in axenic medium [5]: did not display antibacterial activity | antiviral activity in epithelial cells infected with SARS-COV-2 (SARS-COV-2; veroE6, MOI 0.1, 24 h treatment): induced antiviral activity in epithelial cells infected with SARS-COV-2 in a dose dependent manner | antibacterial activity in bladder epithelial cells infected with UPEC [9]: antibacterial activity

CC(C)Cn1cnc2c(N)nc3ccccc3c21 [imiquimod]
anti-infective / antimicrobial activity of TLR7 agonist ([1]; after 24 hours of treatment): moderate anti-infective activity; also recorded: Modest antimicrobial activity

Nc1nc(NC2CC2)cc(-c2cccc(Cl)c2Cl)n1 [TH588]
host cell cytotoxicity against bladder epithelial cells (bladder epithelial cells; [12]): dose dependent toxicity | intracellular antibacterial activity after 4 hours of treatment ([1]; 10 μM): did not display intracellular antibacterial activity; also recorded: did not induce intracellular antibacterial activity | intracellular antibacterial activity after 24 hours of treatment ([1]; 10 μM): modest antibacterial activity
